# Assay results reported in PubChem BioAssay AID330 (DTP/NCI, 2004).
# Several values for one entry are separate records, joined by “and”; a condition that tells them apart may be missing. Equal values may be shown once. Inconclusive results and toxic doses are left out.
# System: P388 leukemia ip, CD2F1 mice, survival T/C
# Assay: NCI In Vivo Anticancer Drug Screen. Data for tumor model P388 Leukemia (intraperitoneal) in CD2F1 (CDF1) mice
# Conditions: endpoint: median survival time, higher = longer survival
# Outline: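 Mice carrying the transplanted tumor received test compound or vehicle. Survival was recorded in each group, and the value is the treated-group measurement divided by that of the vehicle-treated control group.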
# [1] = dose: 50.0 mg/kg/injection, schedule: Q01DX005 (ip), vehicle: saline
# [2] = dose: 100.0 mg/kg/injection, schedule: Q01DX005 (ip), vehicle: saline
# [3] = dose: 200.0 mg/kg/injection, schedule: Q01DX005 (ip), vehicle: saline
# [4] = dose: 60.0 mg/kg/injection, schedule: Q01DX005 (ip), vehicle: saline with Tween-80
# [5] = dose: 120.0 mg/kg/injection, schedule: Q01DX005 (ip), vehicle: saline with Tween-80
# [6] = dose: 240.0 mg/kg/injection, schedule: Q01DX005 (ip), vehicle: saline with Tween-80
# [7] = dose: 100.0 mg/kg/injection, schedule: Q01DX009 (ip), vehicle: saline with Tween-80
# [8] = dose: 200.0 mg/kg/injection, schedule: Q01DX009 (ip), vehicle: saline with Tween-80
# [9] = dose: 50.0 mg/kg/injection, schedule: Q01DX005 (ip), vehicle: Klucel (hydroxypropylcellulose) (HPC)
# [10] = dose: 100.0 mg/kg/injection, schedule: Q01DX005 (ip), vehicle: Klucel (hydroxypropylcellulose) (HPC)
# [11] = dose: 100.0 mg/kg/injection, schedule: Q01DX001 (ip), vehicle: saline
# [12] = dose: 200.0 mg/kg/injection, schedule: Q01DX001 (ip), vehicle: saline
# [13] = dose: 50.0 mg/kg/injection, schedule: Q01DX005 (ip), vehicle: saline with Tween-80
# [14] = dose: 100.0 mg/kg/injection, schedule: Q01DX005 (ip), vehicle: saline with Tween-80
# [15] = dose: 200.0 mg/kg/injection, schedule: Q01DX005 (ip), vehicle: saline with Tween-80
# [16] = dose: 25.0 mg/kg/injection, schedule: Q01DX009 (ip), vehicle: saline with Tween-80
# [17] = dose: 50.0 mg/kg/injection, schedule: Q01DX009 (ip), vehicle: saline with Tween-80
# [18] = dose: 50.0 mg/kg/injection, schedule: Q04DX003 (ip), vehicle: saline
# [19] = dose: 100.0 mg/kg/injection, schedule: Q04DX003 (ip), vehicle: saline
# [20] = dose: 50.0 mg/kg/injection, schedule: Q01DX009 (ip), vehicle: saline
# [21] = dose: 100.0 mg/kg/injection, schedule: Q01DX009 (ip), vehicle: saline
# [22] = dose: 50.0 mg/kg/injection, schedule: Q01DX009 (ip), vehicle: Klucel (hydroxypropylcellulose) (HPC)
structure (smiles),measurement,setting,value
CC(C)[C@@]12O[C@@H]1CC13OC1[C@@H](O)CC[C@@]32O (some centres undefined),T/C,[1],105 % of control
same,T/C,[2],99 % of control
same,T/C,[3],103 % of control
CCC1(O)CC(OC2CC(O)C(O)CO2)c2c(O)c3c(c(O)c2C1C(=O)OC)C(=O)c1cccc(O)c1C3=O (centres undefined),T/C,"dose: 1.56 mg/kg/injection, schedule: Q01DX009 (ip), vehicle: other",90 % of control
same,T/C,"dose: 3.13 mg/kg/injection, schedule: Q01DX009 (ip), vehicle: other",88 % of control
same,T/C,"dose: 6.25 mg/kg/injection, schedule: Q01DX009 (ip), vehicle: other",101 % of control
same,T/C,"dose: 12.5 mg/kg/injection, schedule: Q01DX009 (ip), vehicle: other",115 % of control
same,T/C,"dose: 25.0 mg/kg/injection, schedule: Q01DX009 (ip), vehicle: other",92 % of control
COC(=O)c1nnn(-c2ccc(S(N)(=O)=O)cc2)c1C(=O)c1ccc(Cl)c(Cl)c1,T/C,[4],109 % of control
same,T/C,[5],109 % of control
same,T/C,[6],94 % of control
NC(=O)C(Cl)(Cl)Cl,T/C,[7],100 % of control
same,T/C,[8],99 % of control
same,T/C,"dose: 400.0 mg/kg/injection, schedule: Q01DX009 (ip), vehicle: saline with Tween-80",99 % of control
OC(C1=CCCCC1)(c1ccccc1)c1ccccc1,T/C,"dose: 25.0 mg/kg/injection, schedule: Q01DX005 (ip), vehicle: Klucel (hydroxypropylcellulose) (HPC)",98 % of control
same,T/C,[9],100 % of control
same,T/C,[10],90 % of control
same,T/C,"dose: 200.0 mg/kg/injection, schedule: Q01DX005 (ip), vehicle: Klucel (hydroxypropylcellulose) (HPC)",91 % of control
C[P+]1(C)CCCCC1,T/C,[11],98 % of control
same,T/C,[12],91 % of control
N#CC(CCCC(C#N)(c1ccccc1)c1ccccc1)(c1ccccc1)c1ccccc1,T/C,"dose: 100.0 mg/kg/injection, schedule: Q01DX001 (ip), vehicle: Klucel (hydroxypropylcellulose) (HPC)",100 % of control
same,T/C,"dose: 200.0 mg/kg/injection, schedule: Q01DX001 (ip), vehicle: Klucel (hydroxypropylcellulose) (HPC)",101 % of control
same,T/C,"dose: 400.0 mg/kg/injection, schedule: Q01DX001 (ip), vehicle: Klucel (hydroxypropylcellulose) (HPC)",105 % of control
COc1ccc(CNC(=O)C(CO)N2C(=O)c3ccccc3C2=O)cc1 (centres undefined),T/C,[13],96 % of control
same,T/C,[14],100 % of control
same,T/C,[15],90 % of control
CCCCCCCCCCCCCCCC[As](CCCCCCCCCCCCCCCC)SCC1OC(OC(C)=O)C(OC(C)=O)C(OC(C)=O)C1OC(C)=O (centres undefined),T/C,[16],114 % of control
same,T/C,[17],109 % of control and 119 % of control
same,T/C,[7],117 % of control
same,T/C,[8],119 % of control
C=CCN(CC=C)CCN1CCN(CCCN2c3ccccc3Sc3ccc(C(F)(F)F)cc32)CC1,T/C,"dose: 12.5 mg/kg/injection, schedule: Q04DX003 (ip), vehicle: saline",101 % of control and 103 % of control
same,T/C,"dose: 25.0 mg/kg/injection, schedule: Q04DX003 (ip), vehicle: saline",111 % of control and 112 % of control
same,T/C,[18],104 % of control and 107 % of control
same,T/C,[19],100 % of control and 102 % of control
CC(=O)OCC1OC(CCC#N)C(OC(C)=O)C(OC(C)=O)C1OC(C)=O (centres undefined),T/C,[4],102 % of control and 100 % of control
same,T/C,"dose: 60.0 mg/kg/injection, schedule: Q01DX005 (ip), vehicle: saline",102 % of control
same,T/C,[5],98 % of control and 108 % of control
same,T/C,"dose: 120.0 mg/kg/injection, schedule: Q01DX005 (ip), vehicle: saline",101 % of control
same,T/C,[6],100 % of control and 102 % of control
same,T/C,"dose: 240.0 mg/kg/injection, schedule: Q01DX005 (ip), vehicle: saline",101 % of control
Cc1cc(-c2cccc3ccccc23)[n+]([O-])cc1C,T/C,[13],101 % of control
same,T/C,[14],101 % of control
same,T/C,[15],90 % of control
O=S1(=O)CCC(N2CCCCC2)C1 (centres undefined),T/C,"dose: 25.0 mg/kg/injection, schedule: Q01DX009 (ip), vehicle: saline",102 % of control
same,T/C,[20],94 % of control
same,T/C,[21],104 % of control
same,T/C,"dose: 200.0 mg/kg/injection, schedule: Q01DX009 (ip), vehicle: saline",98 % of control
COP(=S)(OC)Oc1cc(Cl)c(Cl)cc1Cl,T/C,[18],100 % of control
same,T/C,[19],102 % of control
same,T/C,"dose: 200.0 mg/kg/injection, schedule: Q04DX003 (ip), vehicle: saline",103 % of control
same,T/C,"dose: 400.0 mg/kg/injection, schedule: Q04DX003 (ip), vehicle: saline",102 % of control
Cc1ccc(-c2nc3ccccc3c(=O)n2/N=C/c2ccc(O)cc2)cc1,T/C,[13],100 % of control
same,T/C,[14],99 % of control
same,T/C,[15],89 % of control
CNc1ncnc2[nH]ncc12,T/C,[17],100 % of control
same,T/C,"dose: 200.0 mg/kg/injection, schedule: Q04DX003 (ip), vehicle: saline sonified",109 % of control
Cc1ncc(S(=O)(=O)Cc2ccc3c(c2)OCO3)c(N)n1,T/C,[11],96 % of control
same,T/C,[12],95 % of control
same,T/C,"dose: 400.0 mg/kg/injection, schedule: Q01DX001 (ip), vehicle: saline",95 % of control
CCCN1CN2C(C)C(c3ccccc3)OC2C(C)(C)C1 (centres undefined),T/C,[17],112 % of control
same,T/C,[7],112 % of control
same,T/C,[8],117 % of control
COC(=O)/C=C1\C(=O)OC(C)(C)C1C (centres undefined),T/C,[22],96 % of control
same,T/C,"dose: 100.0 mg/kg/injection, schedule: Q01DX009 (ip), vehicle: Klucel (hydroxypropylcellulose) (HPC)",98 % of control
same,T/C,"dose: 200.0 mg/kg/injection, schedule: Q01DX009 (ip), vehicle: Klucel (hydroxypropylcellulose) (HPC)",103 % of control
CC(=O)ON(C(=O)c1ccc([N+](=O)[O-])cc1)c1ccc(C=O)cc1,T/C,"dose: 100.0 mg/kg/injection, schedule: Q01DX001 (ip), vehicle: saline with Tween-80",102 % of control
same,T/C,"dose: 200.0 mg/kg/injection, schedule: Q01DX001 (ip), vehicle: saline with Tween-80",101 % of control
CCOC(=O)C1=C(c2ccccc2)SC(c2ccccc2)N(C(C)C)C1=O (centres undefined),T/C,[16],106 % of control
same,T/C,[17],107 % of control
same,T/C,[7],100 % of control
O=C(CS)Nc1ccccn1,T/C,"dose: 12.5 mg/kg/injection, schedule: Q01DX009 (ip), vehicle: Klucel (hydroxypropylcellulose) (HPC)",104 % of control
same,T/C,"dose: 25.0 mg/kg/injection, schedule: Q01DX009 (ip), vehicle: Klucel (hydroxypropylcellulose) (HPC)",103 % of control
same,T/C,[22],103 % of control and 114 % of control
OCC(O)CO,T/C,"dose: 0.5 % in 0.5 ml injection vol, schedule: Q01DX009 (ip), vehicle: water",100 % of control
same,T/C,"dose: 1.0 % in 0.5 ml injection vol, schedule: Q01DX009 (ip), vehicle: water",93 % of control
same,T/C,"dose: 2.0 % in 0.5 ml injection vol, schedule: Q01DX009 (ip), vehicle: water",99 % of control and 105 % of control
same,T/C,"dose: 4.0 % in 0.5 ml injection vol, schedule: Q01DX009 (ip), vehicle: water",105 % of control and 111 % of control
same,T/C,"dose: 8.0 % in 0.5 ml injection vol, schedule: Q01DX009 (ip), vehicle: water",104 % of control and 94 % of control
same,T/C,"dose: 16.0 % in 0.5 ml injection vol, schedule: Q01DX009 (ip), vehicle: water",101 % of control and 102 % of control
CC(=O)Oc1cc(-c2ccccc2)oc1-c1ccccc1,T/C,"dose: 100.0 mg/kg/injection, schedule: Q04DX002 (ip), vehicle: saline",104 % of control
same,T/C,"dose: 200.0 mg/kg/injection, schedule: Q04DX002 (ip), vehicle: saline",106 % of control
same,T/C,"dose: 400.0 mg/kg/injection, schedule: Q04DX002 (ip), vehicle: saline",98 % of control
COC(=O)Nc1nc2ccc(C3(c4ccc(F)cc4)OCCO3)cc2[nH]1,T/C,"dose: 25.0 mg/kg/injection, schedule: Q01DX009 (oral), vehicle: saline",103 % of control
same,T/C,"dose: 50.0 mg/kg/injection, schedule: Q01DX009 (oral), vehicle: saline",119 % of control
same,T/C,[18],168 % of control
same,T/C,"dose: 60.0 mg/kg/injection, schedule: Q04DX003 (ip), vehicle: saline",155 % of control and 192 % of control
same,T/C,"dose: 70.0 mg/kg/injection, schedule: Q04DX003 (ip), vehicle: saline",208 % of control
O=C(O)CCSSCCCCS(=O)O,T/C,[1],114 % of control
same,T/C,[2],114 % of control
same,T/C,[3],100 % of control
CN1CCC/C1=C1/Cc2ccccc2C1=O,T/C,[9],91 % of control
same,T/C,[10],108 % of control
CC(C)=C(C#N)N(C)C(C)(C)C,T/C,[20],100 % of control
same,T/C,[21],97 % of control
